Measured values from the NIST ThermoML archive (doi:10.1021/je700460w).
Numbers after ± are expanded uncertainties. Values belong to the compound of their own block, whether it stands above or below them.

Assays:
[1] = 303.15 K; 101 kPa; Liquid
[2] = xn = mol fraction of the nth substance listed; settings: 303.15 K, 101 kPa, Liquid

Compound: CC(C)OC(C)C [diisopropyl ether]
mass density [1]: 713.51 ± 0.76 kg/m3

Compound: CC(C)OC(C)C [diisopropyl ether] + CC(C)CC(C)(C)C
mass density ([2]; x1 = 0.0504): 684.87 ± 0.43 kg/m3
mass density ([2]; x1 = 0.102): 686.03 ± 0.43 kg/m3
mass density ([2]; x1 = 0.1985): 688.29 ± 0.43 kg/m3
mass density ([2]; x1 = 0.301): 690.84 ± 0.43 kg/m3
mass density ([2]; x1 = 0.3996): 693.42 ± 0.43 kg/m3
mass density ([2]; x1 = 0.5002): 696.27 ± 0.42 kg/m3
mass density ([2]; x1 = 0.6002): 699.34 ± 0.42 kg/m3
mass density ([2]; x1 = 0.7009): 702.6 ± 0.42 kg/m3
mass density ([2]; x1 = 0.7849): 705.55 ± 0.41 kg/m3
mass density ([2]; x1 = 0.9013): 709.78 ± 0.41 kg/m3
mass density ([2]; x1 = 0.9512): 711.68 ± 0.41 kg/m3
mass density ([2]; x1 = 1): 713.51 ± 0.41 kg/m3

Compound: CCCO [propan-1-ol]
mass density [1]: 796.55 ± 0.6 kg/m3

Compound: CCCO [propan-1-ol] + CC(C)CC(C)(C)C
mass density ([2]; x1 = 1): 796.55 ± 0.34 kg/m3

Compound: CCCO [propan-1-ol] + CC(C)OC(C)C
mass density ([2]; x2 = 0): 796.55 ± 0.6 kg/m3

Other lines, results leading:

mass density [1]: 683.74 ± 0.43 kg/m3
Compound: CC(C)CC(C)(C)C [2,2,4-trimethylpentane]

mass density ([2]; x2 = 0): 683.74 ± 0.43 kg/m3
Compound: CC(C)CC(C)(C)C [2,2,4-trimethylpentane] + CC(C)OC(C)C

mass density ([2]; x2 = 0): 683.74 ± 0.43 kg/m3
mass density ([2]; x2 = 0.0484): 685.75 ± 0.43 kg/m3
mass density ([2]; x2 = 0.0993): 688.26 ± 0.43 kg/m3
mass density ([2]; x2 = 0.2038): 694.24 ± 0.42 kg/m3
mass density ([2]; x2 = 0.2983): 700.64 ± 0.42 kg/m3
mass density ([2]; x2 = 0.4): 708.63 ± 0.41 kg/m3
mass density ([2]; x2 = 0.5007): 717.82 ± 0.41 kg/m3
mass density ([2]; x2 = 0.5989): 728.33 ± 0.4 kg/m3
mass density ([2]; x2 = 0.6995): 741.12 ± 0.39 kg/m3
mass density ([2]; x2 = 0.7998): 756.21 ± 0.38 kg/m3
mass density ([2]; x2 = 0.8984): 774.29 ± 0.36 kg/m3
mass density ([2]; x2 = 0.9502): 785.01 ± 0.35 kg/m3
Compound: CC(C)CC(C)(C)C [2,2,4-trimethylpentane] + CCCO

mass density ([2]; x1 = 0.0504): 790.59 ± 0.61 kg/m3
mass density ([2]; x1 = 0.0991): 785.96 ± 0.62 kg/m3
mass density ([2]; x1 = 0.2001): 775.66 ± 0.64 kg/m3
mass density ([2]; x1 = 0.2994): 766.52 ± 0.66 kg/m3
mass density ([2]; x1 = 0.4): 757.67 ± 0.68 kg/m3
mass density ([2]; x1 = 0.5018): 749.3 ± 0.69 kg/m3
mass density ([2]; x1 = 0.6006): 741.73 ± 0.71 kg/m3
mass density ([2]; x1 = 0.6995): 734.54 ± 0.72 kg/m3
mass density ([2]; x1 = 0.7994): 727.46 ± 0.73 kg/m3
mass density ([2]; x1 = 0.8981): 720.72 ± 0.75 kg/m3
mass density ([2]; x1 = 0.9498): 717.2 ± 0.75 kg/m3
mass density ([2]; x1 = 1): 713.51 ± 0.76 kg/m3
Compound: CC(C)OC(C)C [diisopropyl ether] + CCCO
